US5292734A, “Angiotensin II receptor blocking 2,3,6 substituted quinazolinones” (American Cyanamid Company, priority 1993, dated 1994)

Biological target: T1, Angiotensin II Receptor (Bos taurus, UniProt P25104)
T1 construct: The brownish tissue forming the adrenal cortex is scraped off and finely minced with scissors before homogenization; from tissue; host or cells: beef adrenal cortex, microsomal membranes (100,000 x g pellet)
T1 sequence (P25104 1-359): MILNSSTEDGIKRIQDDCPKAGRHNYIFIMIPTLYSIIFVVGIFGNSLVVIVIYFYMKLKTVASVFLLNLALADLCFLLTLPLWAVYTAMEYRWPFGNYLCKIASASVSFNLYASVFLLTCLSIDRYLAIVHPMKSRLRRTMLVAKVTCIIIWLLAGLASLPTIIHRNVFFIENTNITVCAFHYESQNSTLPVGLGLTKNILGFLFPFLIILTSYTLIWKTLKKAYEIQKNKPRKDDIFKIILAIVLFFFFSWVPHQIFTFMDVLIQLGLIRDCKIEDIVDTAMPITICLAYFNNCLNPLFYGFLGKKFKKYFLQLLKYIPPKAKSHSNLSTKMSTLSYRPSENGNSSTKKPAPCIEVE
Assay: Receptor binding assay: binding of [^125 I](Sar^1,Ile^8)AngII
Settings: beef adrenal cortex membranes, 60 min, room temperature
Source text: Beef adrenals are obtained from a local slaughter house (Maxwell-Cohen). [^125 I](Sar^1,Ile^8)AngII, S. A. 2200 Ci/mmole, is purchased from Dupont (NEN®, Boston, Mass.). All unlabeled AngII analogs, Dimethylsulfoxide (DMSO), nucleotides, bovine serum albumin (BSA) are purchased from Sigma Chemical Co., St. Louis, Mo. U.S.A.
Approximately sixteen (16) to twenty (20) beef adrenal glands are processed as follows: fresh adrenal glands received on crushed ice are cleaned of fatty tissues and the tough membranes encapsulating the glands are removed and discarded. […] A 100 ul aliquot is withdrawn and the protein content of the preparation is determined by the Lowry's method (Lowry, O. H., Rosebrough, N. P., Farr, A. L. and Randall, R. J., Protein measurement with Polin phenol reagent. J. Biol. Chem., […], 265-275, 1951). […]
The binding of [^125 I](Sar^1 Ile^8)AngII to microsomal membranes is initiated by the addition of reconstituted membranes (1:10 vols.) in freshly made 50.0 mM Tris.HCl buffer, pH 7.4 containing 0.25% heat inactivated bovine serum albumin (BSA): 80 ul membrane protein (10 to 20 ug/assay) to wells already containing 100 ul of incubation buffer (as described above) and 20 ul [^125 I](Sar^1 Ile^8)AngII (Specific Activity, 2200 Ci/mmole). Non-specific binding is measured in the presence of 1.0 uM unlabeled (Sar^1,Ile^8)AngII, added in 20 ul volume. […]

IC50: 41 nM
SMILES: CCCCc1nc2ccc(C(O)CC3CCCN3)cc2c(=O)n1Cc1ccc(-c2ccccc2-c2nnn[nH]2)cc1 (racemic) [Example 80, CIS-(+/-)-2-Butyl-6-[1-hydroxy-2-(2-pyrrolidinyl)ethyl]-3-[[2'-(1H-tetrazol-5-yl)[1,1'-biphenyl]-4-yl]methyl] -4(3H)-quinazolinone]
